Results on 26 compounds are retold here after patent US9676721B2, “Compounds and compositions for the inhibition of NAMPT” (FORMA TM, LLC, priority 2010, dated 2017).

Each structure is given as a SMILES string.

In experiment [1] the target is NAMPT (Homo sapiens (Human), UniProt P43490). Briefly: Biochemical Inhibition Assay (NAMPT enzymatic reaction, NMN by mass spectrometry). Particulars: recombinant His-tagged NAMPT 33 nM, 1 μM NAM, 30 minutes; read-out: Biochem IC50. The procedure:
Biochemical Inhibition Assay NAMPT Protein Purification Recombinant His-tagged NAMPT was produced in E. coli cells, purified over a Ni column, and further purified over a size-exclusion column by XTAL Biostructures. The NAMPT Enzymatic Reaction The NAMPT enzymatic reactions were carried out in Buffer A (50 mM Hepes pH 7.5, 50 mM NaCl, 5 mM MgCl2, and 1 mM THP) in 96-well V-bottom plates. The compound titrations were performed in a separate dilution plate by serially diluting the compounds in DMSO to make a 100× stock. […] Background and signal strength was determined by addition (or non-addition) of a serial dilution of NMN to a pre-quenched enzyme and cofactor mix. Quantification of NMN A mass spectrometry-based assay was used to measure the NAMPT reaction product (NMN) and the internal control (L-Cystathionine). NMN and L-Cystathionine were detected using the services of Biocius Lifesciences with the RapidFire system. In short, the NMN and L-Cystathionine are bound to a graphitic carbon cartridge in 0.1% formic acid, eluted in 30% acetonitrile buffer, and injected into a Sciex 4000 mass spectrometer. The components of the sample were ionized with electrospray ionization and the positive ions were detected. […] The fragments are quantified and the analyzed by the following method. % Inhibitions are Determined Using this Method. First the NMN signal is normalized to the L-Cystathionine signal by dividing the NMN signal by the L-Cystathionine signal for each well. The signal from the background wells are averaged and subtracted from the test plates. […] IC50s are Determined Using Excel and this Formula.

Experiment [2] has as its system A2780 cells. Briefly: In-Vitro Cell Proliferation Assay (SRB). The class given is cell-based. As to the method: In-Vitro Cell Proliferation Assay […] After overnight incubation at 37° C. and 5% CO2, the compound titrations were performed in a separate dilution plate by serially diluting the compounds in DMSO to make a 1000× stock. The compounds were then further diluted to 10× final concentration in culture media, whereupon 20 μL of each dilution was added to the plated cells with controls (e.g. DMSO and blank) to make a final volume of 200 μL. The final DMSO concentration in each well was 0.1%. The plates were then incubated for 72 hours at 37° C. in a 5% CO2 incubator. The number of viable cells was then assessed using sulforhodamine B (SRB) assay. Cells were fixed at 4° C. for 1 hour with the addition of 50 μL 30% trichloroacetic acid (TCA) to make a final concentration of 6% TCA. The plates were washed four times with H2O and allowed to dry for at least 1 hour, whereupon 100 μL of a […] SRB in 1% acetic acid solution was added to each well and incubated at room temperature for at least 30 minutes. The plates were then washed three times with 1% acetic acid, dried, and treated with 100 μL of 10 mM Tris-Base solution. The plates were then read in a microplate reader at an absorbance of 570 nm. Background was generated on a separate plate with media only. Method for Determining % Inhibition First, the signals from the background plate are averaged, then the background was subtracted from the test plates. […] Formula for Determining IC50 Values: […] Specificity of Cytotoxicity. Inhibition of NAMPT could be reversed by the addition of NAM or NMN. The specificity of the compounds were determined via cell viability assay in the presence of the compound and either NAM or NMN. Percent inhibitions were determined using the method given above.

NAMPT, sequence (P43490 whole entry): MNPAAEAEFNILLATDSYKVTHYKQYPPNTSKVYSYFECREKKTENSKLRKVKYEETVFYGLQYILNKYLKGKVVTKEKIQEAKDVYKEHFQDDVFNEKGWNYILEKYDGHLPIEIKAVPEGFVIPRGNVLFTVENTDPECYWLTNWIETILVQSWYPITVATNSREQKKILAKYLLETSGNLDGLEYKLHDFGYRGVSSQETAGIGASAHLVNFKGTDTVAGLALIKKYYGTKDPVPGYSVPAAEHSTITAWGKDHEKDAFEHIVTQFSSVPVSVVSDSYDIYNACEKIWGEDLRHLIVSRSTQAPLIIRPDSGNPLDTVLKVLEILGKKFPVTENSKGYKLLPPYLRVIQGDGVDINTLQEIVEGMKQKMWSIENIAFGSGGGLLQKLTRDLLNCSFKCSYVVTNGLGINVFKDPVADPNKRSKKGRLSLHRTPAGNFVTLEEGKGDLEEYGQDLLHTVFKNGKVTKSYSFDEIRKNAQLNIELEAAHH

With `Cc1ccc(S(=O)(=O)c2ccc(CN/C(=N\C#N)Nc3ccncc3)cc2)cc1` [2-cyano-1-({4-[(4-methylbenzene)sulfonyl]phenyl}methyl)-3-(pyridin-4-yl)guanidine], the IC50 (usually the concentration that inhibits the measured activity by half) amounted to 2.5 nM in experiment [1] and 2.6 nM in experiment [2] (Homo sapiens, A2780, 72 h).
The corresponding values for `Cc1ccc(F)cc1S(=O)(=O)c1ccc(CNC(=NC#N)Nc2ccncc2)cc1` [2-cyano-1-({4-[(5-fluoro-2-methylbenzene)sulfonyl]phenyl}methyl)-3-(pyridin-4-yl)guanidine] are 4.5 nM and 3.3 nM.
The corresponding values for `N#CN=C(NCc1ccc(S(=O)(=O)c2ccccc2CN2CCOCC2)cc1)Nc1ccncc1` [2-cyano-1-[(4-{[2-(morpholin-4-ylmethyl)benzene]sulfonyl}phenyl)methyl]-3-(pyridin-4-yl)guanidine] are 11.7 nM and 7.5 nM.
The corresponding values for `COc1cc(C(F)(F)F)ccc1S(=O)(=O)c1ccc(CNC(=NC#N)Nc2ccncc2)cc1` [2-cyano-1-[(4-{[2-methoxy-4-(trifluoromethyl)benzene]sulfonyl}phenyl)methyl]-3-(pyridin-4-yl)guanidine] are 5.7 nM and 6 nM.
As to `COc1ccc(C(C)C)cc1S(=O)(=O)c1ccc(CNC(=NC#N)Nc2ccncc2)cc1` [2-cyano-1-[(4-{[2-methoxy-5-(propan-2-yl)benzene]sulfonyl}phenyl)methyl]-3-(pyridin-4-yl)guanidine], the IC50 turned out to be 5.3 nM in experiment [1] and 3.5 nM in experiment [2] (Homo sapiens, A2780, 72 h).
The corresponding values for `N#CN=C(NCc1ccc(S(=O)(=O)c2cccc(-n3cccn3)c2)cc1)Nc1ccncc1` [2-cyano-1-[(4-{[3-(1H-pyrazol-1-yl)benzene]sulfonyl}phenyl)methyl]-3-(pyridin-4-yl)guanidine] are 3.5 nM and 2.9 nM.
Taken in the same sequence, the figures for `CN(C)S(=O)(=O)c1cccc(S(=O)(=O)c2ccc(CNC(=NC#N)Nc3ccncc3)cc2)c1` [2-cyano-1-[(4-{[3-(dimethylsulfamoyl)benzene]sulfonyl}phenyl)methyl]-3-(pyridin-4-yl)guanidine] were 1.3 nM and 6.1 nM.
Turning to `CCS(=O)(=O)c1cccc(S(=O)(=O)c2ccc(CNC(=NC#N)Nc3ccncc3)cc2)c1` [2-cyano-1-[(4-{[3-(ethanesulfonyl)benzene]sulfonyl}phenyl)methyl]-3-(pyridin-4-yl)guanidine], the IC50 was 1.8 nM in experiment [1] and 13.3 nM in experiment [2] (72 hours).
Regarding `COCc1cccc(S(=O)(=O)c2ccc(CNC(=NC#N)Nc3ccncc3)cc2)c1` [2-cyano-1-[(4-{[3-(methoxymethyl)benzene]sulfonyl}phenyl)methyl]-3-(pyridin-4-yl)guanidine], the IC50 in experiment [1] came to 7.2 nM; in experiment [2] (Homo sapiens, A2780, 72 h), 5.9 nM.
Consider `CC(C)c1cccc(S(=O)(=O)c2ccc(CNC(=NC#N)Nc3ccncc3)cc2)c1` [2-cyano-1-[(4-{[3-(propan-2-yl)benzene]sulfonyl}phenyl)methyl]-3-(pyridin-4-yl)guanidine], for which the IC50 turned out to be 2.9 nM in experiment [1] and 1.1 nM in experiment [2] (Homo sapiens, A2780, 72 h).
Taken in the same sequence, the figures for `CC(C)Oc1cccc(S(=O)(=O)c2ccc(CNC(=NC#N)Nc3ccncc3)cc2)c1` [2-cyano-1-[(4-{[3-(propan-2-yloxy)benzene]sulfonyl}phenyl)methyl]-3-(pyridin-4-yl)guanidine] were 3.2 nM and 5.7 nM.
Taken in the same sequence, the figures for `CCCS(=O)(=O)Nc1cccc(S(=O)(=O)c2ccc(CNC(=NC#N)Nc3ccncc3)cc2)c1` [2-cyano-1-[(4-{[3-(propane-1-sulfonamido)benzene]sulfonyl}phenyl)methyl]-3-(pyridin-4-yl)guanidine] were 2.1 nM and 23.3 nM.
As for `N#CN=C(NCc1ccc(S(=O)(=O)c2ccc(OCC(F)(F)F)c(F)c2)cc1)Nc1ccncc1` [2-cyano-1-[(4-{[3-fluoro-4-(2,2,2-trifluoroethoxy)benzene]sulfonyl}phenyl)methyl]-3-(pyridin-4-yl)guanidine], the IC50 in experiment [1] stood at 5.1 nM; in experiment [2] (Homo sapiens, A2780, 72 h), 5.9 nM.
The corresponding values for `N#CN=C(NCc1ccc(S(=O)(=O)c2cc(F)cc(OCC(F)(F)F)c2)cc1)Nc1ccncc1` [2-cyano-1-[(4-{[3-fluoro-5-(2,2,2-trifluoroethoxy)benzene]sulfonyl}phenyl)methyl]-3-(pyridin-4-yl)guanidine] are 5.3 nM and 1.9 nM.
Taken in the same sequence, the figures for `N#CN=C(NCc1ccc(S(=O)(=O)c2cc(F)cc(C(F)(F)F)c2)cc1)Nc1ccncc1` [2-cyano-1-[(4-{[3-fluoro-5-(trifluoromethyl)benzene]sulfonyl}phenyl)methyl]-3-(pyridin-4-yl)guanidine] were 6 nM and 1.5 nM.
Taken in the same sequence, the figures for `N#CN=C(NCc1ccc(S(=O)(=O)c2ccc(-n3cccn3)cc2)cc1)Nc1ccncc1` [2-cyano-1-[(4-{[4-(1H-pyrazol-1-yl)benzene]sulfonyl}phenyl)methyl]-3-(pyridin-4-yl)guanidine] were 3.3 nM and 3.4 nM.
`N#C/N=C(\NCc1ccc(S(=O)(=O)c2ccc(N3CCOCC3)cc2)cc1)Nc1ccncc1` [2-cyano-1-[(4-{[4-(morpholin-4-yl)benzene]sulfonyl}phenyl)methyl]-3-(pyridin-4-yl)guanidine]: the IC50 in experiment [1] stood at 1.5 nM; in experiment [2] (Homo sapiens, A2780, 72 h), 2.8 nM.
For the compound `CC(C)c1ccc(S(=O)(=O)c2ccc(CNC(=NC#N)Nc3ccncc3)cc2)cc1` [2-cyano-1-[(4-{[4-(propan-2-yl)benzene]sulfonyl}phenyl)methyl]-3-(pyridin-4-yl)guanidine], the IC50 in experiment [1] stood at 3.8 nM; in experiment [2] (Homo sapiens, A2780, 72 h), 2.8 nM.
As to `CC(C)Oc1ccc(S(=O)(=O)c2ccc(CNC(=NC#N)Nc3ccncc3)cc2)cc1` [2-cyano-1-[(4-{[4-(propan-2-yloxy)benzene]sulfonyl}phenyl)methyl]-3-(pyridin-4-yl)guanidine], the IC50 in experiment [1] is 2.6 nM; in experiment [2] (Homo sapiens, A2780, 72 h), 1.5 nM.
Regarding `Cn1ncc2ccc(S(=O)(=O)c3ccc(CN/C(=N\C#N)Nc4ccncc4)cc3)cc21` [2-cyano-1-{[4-(1-methyl-1H-indazole-6-sulfonyl)phenyl]methyl}-3-(pyridin-4-yl)guanidine], the IC50 is 1 nM in experiment [1] and 1.6 nM in experiment [2] (Homo sapiens, A2780, 72 h).
Consider `Cn1c(S(=O)(=O)c2ccc(CNC(=NC#N)Nc3ccncc3)cc2)cc2ccccc21` [2-cyano-1-{[4-(1-methyl-1H-indole-2-sulfonyl)phenyl]methyl}-3-(pyridin-4-yl)guanidine], for which the IC50 in experiment [1] was 2.1 nM; in experiment [2] (Homo sapiens, A2780, 72 h) it was 1.2 nM.
Taken in the same sequence, the figures for `Cn1cc(S(=O)(=O)c2ccc(CNC(=NC#N)Nc3ccncc3)cc2)cn1` [2-cyano-1-{[4-(1-methyl-1H-pyrazole-4-sulfonyl)phenyl]methyl}-3-(pyridin-4-yl)guanidine] were 4.3 nM and 49.3 nM.
The corresponding values for `CCCn1cc(S(=O)(=O)c2ccc(CNC(=NC#N)Nc3ccncc3)cc2)cn1` [2-cyano-1-{[4-(1-propyl-1H-pyrazole-4-sulfonyl)phenyl]methyl}-3-(pyridin-4-yl)guanidine] are 4.1 nM and 6.4 nM.
The corresponding values for `COc1ccc(S(=O)(=O)c2ccc(CNC(=NC#N)Nc3ccncc3)cc2)c(OC)n1` [2-cyano-1-{[4-(2,6-dimethoxypyridine-3-sulfonyl)phenyl]methyl}-3-(pyridin-4-yl)guanidine] are 6.8 nM and 3.4 nM.
On to `Cc1ncccc1S(=O)(=O)c1ccc(CNC(=NC#N)Nc2ccncc2)cc1` [2-cyano-1-{[4-(2-methylpyridine-3-sulfonyl)phenyl]methyl}-3-(pyridin-4-yl)guanidine], for which the IC50 in experiment [1] stood at 4.8 nM; in experiment [2] (Homo sapiens, A2780, 72 h) it was 7.5 nM.
As for `Cc1ccncc1S(=O)(=O)c1ccc(CNC(=NC#N)Nc2ccncc2)cc1` [2-cyano-1-{[4-(4-methylpyridine-3-sulfonyl)phenyl]methyl}-3-(pyridin-4-yl)guanidine], the IC50 in experiment [1] came out at 2.3 nM; in experiment [2] (Homo sapiens, A2780, 72 h), 8.5 nM.
